Source: publication PMC9265530, “The Three Two-Pore Channel Subtypes from Rabbit Exhibit Distinct Sensitivity to Phosphoinositides, Voltage, and Extracytosolic pH” (Cells, 2022)

How the values were obtained:
[1] = target: T1, OcTPC3 (Oryctolagus cuniculus, UniProt B8Q2W0); assay: inside-out patch clamp, tail current at […] mV after +[…] mV step; type: biochemical; conditions: agonist; relative to 1 µM PI(3,5)P2; 4-s step to +100 mV; pH 7.2
T1 construct: gene TPCN3; C-terminal EGFP fusion (pEGFP-N1), transient in HEK293; previously cloned cDNA; dimer
T1 sequence (B8Q2W0 1-766): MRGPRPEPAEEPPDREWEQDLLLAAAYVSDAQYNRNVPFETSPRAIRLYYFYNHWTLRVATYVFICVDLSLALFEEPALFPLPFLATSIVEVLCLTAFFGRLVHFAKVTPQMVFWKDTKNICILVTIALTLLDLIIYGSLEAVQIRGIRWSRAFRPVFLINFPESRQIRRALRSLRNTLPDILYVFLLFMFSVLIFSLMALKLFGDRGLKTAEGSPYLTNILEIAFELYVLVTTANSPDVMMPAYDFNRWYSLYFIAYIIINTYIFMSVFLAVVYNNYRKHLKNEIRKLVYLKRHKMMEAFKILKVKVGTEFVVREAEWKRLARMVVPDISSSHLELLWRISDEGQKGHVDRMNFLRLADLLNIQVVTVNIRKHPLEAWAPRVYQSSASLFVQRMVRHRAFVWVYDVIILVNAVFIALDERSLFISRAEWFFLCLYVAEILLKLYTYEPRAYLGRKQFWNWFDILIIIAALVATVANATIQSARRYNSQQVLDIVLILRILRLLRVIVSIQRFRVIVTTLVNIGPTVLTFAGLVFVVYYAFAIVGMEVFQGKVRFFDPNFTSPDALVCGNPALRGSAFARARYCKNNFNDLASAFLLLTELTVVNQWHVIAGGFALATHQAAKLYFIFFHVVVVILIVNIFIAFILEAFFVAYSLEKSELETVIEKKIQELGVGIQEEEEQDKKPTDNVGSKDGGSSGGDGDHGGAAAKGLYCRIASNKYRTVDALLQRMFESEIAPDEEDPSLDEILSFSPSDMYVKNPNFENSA

[2] = target: T1, OcTPC3; assay: as above; type: cell-based
[3] = tested on: T2, OcTPC1; assay: inside-out patch clamp, current at -100 mV; type: cell-based, Oryctolagus cuniculus; conditions: agonist; voltage ramps; cytoplasmic pH 7.2; room temperature; HEK293
T2 construct: gene TPCN1; full-length, C-terminal EGFP fusion (pEGFP-N1), transient in HEK293; cloned from rabbit kidney RNA; 815/817 residues match XM_017349553.1; dimer

[4] = target: T3, OcTPC2 (Oryctolagus cuniculus, UniProt Z9ZIB8IF81); assay: whole-endolysosome patch clamp, current at -100 mV; type: cell-based; conditions: agonist; voltage ramps; vacuolin-1 enlarged vacuoles; cytoplasmic pH 7.2; room temperature; HEK293
T3 construct: full-length, C-terminal EGFP fusion (pEGFP-N1), transient in HEK293; cloned from rabbit kidney RNA; 749/753 residues match GBCT01193833.1; dimer

[5] = target: T3, OcTPC2; assay: whole-endolysosome patch clamp, current at -100 mV; type: biochemical; conditions: inhibitor; against 100 nM PI(3,5)P2; voltage ramps

% of PI(3,5)P2 response at 1 μM [1] [%]	Compound	also measured
29.9 ± 5.2	CCCCCCCC(=O)OC[C@H](COP(=O)(O)O[C@H]1[C@H](O)[C@@H](O)[C@H](OP(=O)(O)O)[C@@H](OP(=O)(O)O)[C@H]1O)OC(=O)CCCCCCC [PI(3,4)P2]	–
93.8 ± 5.1	CCCCCCCC(=O)OC[C@H](COP(=O)(O)O[C@@H]1[C@H](O)[C@H](OP(=O)(O)O)[C@@H](O)[C@H](O)[C@H]1O)OC(=O)CCCCCCC [PI3P]	–
–	CCCCCCCC(=O)OC[C@H](COP(=O)(O)O[C@@H]1[C@H](O)[C@H](OP(=O)(O)O)[C@@H](O)[C@H](OP(=O)(O)O)[C@H]1O)OC(=O)CCCCCCC [diC8 PI(3,5)P2]	EC50 [2]: 142 ± 0.2 nM; EC50 [3]: 26.3 ± 5 nM; EC50 [4]: 208 ± 8.1 nM
7.0 ± 2.0	CCCCCCCC(=O)OC[C@H](COP(=O)(O)O[C@H]1[C@H](O)[C@@H](OP(=O)(O)O)[C@H](OP(=O)(O)O)[C@@H](OP(=O)(O)O)[C@H]1O)OC(=O)CCCCCCC [PI(3,4,5)P3]	–
9.0 ± 2.0	CCCCCCCC(=O)OC[C@H](COP(=O)(O)O[C@@H]1[C@H](O)[C@H](O)[C@@H](OP(=O)(O)O)[C@H](OP(=O)(O)O)[C@H]1O)OC(=O)CCCCCCC [PI(4,5)P2]	% inhibition at 1 μM [5]: 67.6 ± 5.3%
